Consider 1 compound from article PMC7306766 (Proceedings of the National Academy of Sciences of the …, 2020).

This experiment has as its target T1, mouse HCN2 (Mus musculus, UniProt O88703).
T1 sequence (O88703 1-863): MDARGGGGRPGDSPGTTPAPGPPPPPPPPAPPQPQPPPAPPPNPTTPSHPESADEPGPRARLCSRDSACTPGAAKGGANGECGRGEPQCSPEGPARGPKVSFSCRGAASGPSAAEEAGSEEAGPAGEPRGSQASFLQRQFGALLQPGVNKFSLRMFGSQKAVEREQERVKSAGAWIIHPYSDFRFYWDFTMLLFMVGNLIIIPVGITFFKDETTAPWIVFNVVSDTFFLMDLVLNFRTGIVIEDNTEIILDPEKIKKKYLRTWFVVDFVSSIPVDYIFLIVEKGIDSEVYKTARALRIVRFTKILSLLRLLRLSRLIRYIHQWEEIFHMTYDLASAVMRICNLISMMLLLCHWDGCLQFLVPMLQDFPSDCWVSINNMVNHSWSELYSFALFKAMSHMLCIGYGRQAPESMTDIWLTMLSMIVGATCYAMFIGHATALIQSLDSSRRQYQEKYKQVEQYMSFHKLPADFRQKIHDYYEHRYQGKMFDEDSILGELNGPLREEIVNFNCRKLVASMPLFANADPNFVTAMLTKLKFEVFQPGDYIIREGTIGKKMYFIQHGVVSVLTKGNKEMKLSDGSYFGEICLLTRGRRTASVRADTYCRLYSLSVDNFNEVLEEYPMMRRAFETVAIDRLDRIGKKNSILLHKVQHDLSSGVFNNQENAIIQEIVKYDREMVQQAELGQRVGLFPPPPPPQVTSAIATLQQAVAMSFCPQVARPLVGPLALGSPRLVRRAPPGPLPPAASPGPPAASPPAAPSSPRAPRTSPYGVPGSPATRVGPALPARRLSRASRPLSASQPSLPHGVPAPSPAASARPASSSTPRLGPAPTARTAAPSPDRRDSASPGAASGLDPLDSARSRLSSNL
The experiment can be described thus: patch clamp, excised inside-out patches from HEK cells. The format is biochemical. The note with it: open-channel pore blocker.

Turning to `CCN(c1ccccc1)c1cc(NC)[n+](C)c(C)n1` [ZD7288], the “% inhibition at 200 μM” value is “mean relative inhibition of zebrafish HCNL1 and mouse HCN2 in response to ZD7288”.
